In US7507739B2, “6-[(substituted)phenyl]triazolopyrimidines as anticancer agents” (Wyeth, priority 2003, dated 2009):

Tested on: HeLa cells
Assay: Cell cycle analysis with HeLa cells
Type: cell-based, human
Conditions: 18 hr
Method: HeLa cells are harvested by trypsinization, washed, counted and distributed to wells of 12-well plates at 125,000 cells per well in 2 mL medium. Cells are cultured overnight. […] Cells are continued in culture for 18 hr after compound addition, then cells in each well are harvested (taking care to recover both adherent and non-adherent cells) and processed using the CycleTEST PLUS kit (Becton Dickinson Immunocytometry Systems, San Jose, Calif.). Flow cytometry is done with a FACSort instrument (Becton Dickinson).
This procedure measures the percentages of cells in a population that are in the G1, S, and G2/M phases of the cell cycle. It utilizes staining of cell nuclei with propidium iodide and analysis by flow cytometry.

Compound: CC[C@]1(O)C[C@H]2CN(CCc3c([nH]c4ccccc34)[C@@](C(=O)OC)(c3cc4c(cc3OC)N(C=O)[C@H]3[C@@](O)(C(=O)OC)[C@H](OC(C)=O)[C@]5(CC)C=CCN6CC[C@]43[C@@H]65)C2)C1 [Vincristine, reference compound]
- Percent in Cell Cycle Phase >4N (1 nM): 2%
- Percent in Cell Cycle Phase Apop (1 nM): 6%
- Percent in Cell Cycle Phase G1 (1 nM): 57%
- Percent in Cell Cycle Phase G2/M (1 nM): 17%
- Percent in Cell Cycle Phase S (1 nM): 18%
- Percent in Cell Cycle Phase >4N (2 nM): 2%
- Percent in Cell Cycle Phase Apop (2 nM): 8%
- Percent in Cell Cycle Phase G1 (2 nM): 55%
- Percent in Cell Cycle Phase G2/M (2 nM): 18%
- Percent in Cell Cycle Phase S (2 nM): 18%
- Percent in Cell Cycle Phase >4N (4 nM): 2%
- Percent in Cell Cycle Phase Apop (4 nM): 9%
- Percent in Cell Cycle Phase G1 (4 nM): 50%
- Percent in Cell Cycle Phase G2/M (4 nM): 23%
- Percent in Cell Cycle Phase S (4 nM): 17%
- Percent in Cell Cycle Phase >4N (6 nM): 3%
- Percent in Cell Cycle Phase Apop (6 nM): 11%
- Percent in Cell Cycle Phase G1 (6 nM): 45%
- Percent in Cell Cycle Phase G2/M (6 nM): 27%
- Percent in Cell Cycle Phase S (6 nM): 15%
- Percent in Cell Cycle Phase >4N (8 nM): 3%
- Percent in Cell Cycle Phase Apop (8 nM): 12%
- Percent in Cell Cycle Phase G1 (8 nM): 40%
- Percent in Cell Cycle Phase G2/M (8 nM): 32%
- Percent in Cell Cycle Phase S (8 nM): 14%
- Percent in Cell Cycle Phase >4N (10 nM): 3%
- Percent in Cell Cycle Phase Apop (10 nM): 16%
- Percent in Cell Cycle Phase G1 (10 nM): 27%
- Percent in Cell Cycle Phase G2/M (10 nM): 41%
- Percent in Cell Cycle Phase S (10 nM): 13%
- Percent in Cell Cycle Phase >4N (15 nM): 4%
- Percent in Cell Cycle Phase Apop (15 nM): 19%
- Percent in Cell Cycle Phase G1 (15 nM): 20%
- Percent in Cell Cycle Phase G2/M (15 nM): 44%
- Percent in Cell Cycle Phase S (15 nM): 14%
- Percent in Cell Cycle Phase >4N (20 nM): 4%
- Percent in Cell Cycle Phase Apop (20 nM): 18%
- Percent in Cell Cycle Phase G1 (20 nM): 15%
- Percent in Cell Cycle Phase G2/M (20 nM): 51%
- Percent in Cell Cycle Phase S (20 nM): 12%
- Percent in Cell Cycle Phase >4N (25 nM): 4%
- Percent in Cell Cycle Phase Apop (25 nM): 17%
- Percent in Cell Cycle Phase G1 (25 nM): 14%
- Percent in Cell Cycle Phase G2/M (25 nM): 52%
- Percent in Cell Cycle Phase S (25 nM): 13%
- Percent in Cell Cycle Phase >4N (30 nM): 4%
- Percent in Cell Cycle Phase Apop (30 nM): 19%
- Percent in Cell Cycle Phase G1 (30 nM): 12%
- Percent in Cell Cycle Phase G2/M (30 nM): 55%
- Percent in Cell Cycle Phase S (30 nM): 11%
- Percent in Cell Cycle Phase >4N (40 nM): 4%
- Percent in Cell Cycle Phase Apop (40 nM): 18%
- Percent in Cell Cycle Phase G1 (40 nM): 8%
- Percent in Cell Cycle Phase G2/M (40 nM): 57%
- Percent in Cell Cycle Phase S (40 nM): 13%
